The values below come from patent US20240190889A1, “NEW CYCLOPENTA-THIENO-DIAZEPINE DERIVATIVES AS GABA A GAMMA1 POSITIVE ALLOSTERIC MODULATORS” (Hoffmann-La Roche Inc., priority 2021, published 2024).

Structures are written as SMILES. pKi: −log10 of the molar value. Read-outs that look alike come from different tables or passages of the source.

Experiment [1] concerns the target human GABAA α1β3γ2 receptor (Homo sapiens (Human), UniProt P14867+P18507). The experiment in a line: Radioligand binding assay, competition for [3H]Flumazenil, γ2-containing GABAA subtypes. The note with it: for γ2/γ1 Selectivity Ratio: Ki α1β3γ2 (nM)/Ki α2β2γ1 (nM); for LogSel: Log[Ki α1β3γ2 (nM)/Ki α2β2γ1 (nM)]. The protocol: Membrane Preparation and Binding Assay for γ2-containing GABAA Subtypes
The affinity of compounds at GABAA γ2 subunit-containing receptors was measured by competition for [^3H]Flumazenil (81.1 Ci/mmol; Roche) binding to HEK293F cells expressing human (transiently transfected) receptors of composition α1β3γ2.
Harvested pellets from HEK293F cells expressing the different GABAA γ2 receptor subtypes were resuspended in Mannitol Buffer pH 7,2-7,4 and processed as described above for the cells expressing the GABAA γ1 subunit-containing receptors.
Assays were incubated to equilibrium for 1 hour at 4° C, and harvested onto GF/C uni-filters (Packard) by filtration using a Packard harvester and washing with ice-cold wash buffer (50 mM Tris; pH 7.5). After anhydrousing, filter-retained radioactivity was detected by liquid scintillation counting. Ki values were calculated using Excel-Fit (Microsoft) and are the means of two determinations.

Experiment [2] deals with human GABAA α5β2γ1 receptor (Homo sapiens (Human), UniProt P31644+Q8N1C3). The experiment in a line: Radioligand binding assay, competition for [3H]RO7239181, γ1-containing GABAA subtypes. The note with it: membranes from HEK293F cells, mean of two determinations. The protocol: (§1) Membrane Preparation and Binding Assay for γ1-containing GABAA Subtypes
The affinity of compounds at GABAA γ1 subunit-containing receptors was measured by competition for [^3H]RO7239181 (67.3 Ci/mmol: Roche) binding to membranes from HEK293F cells (ThermoFisher R79007) expressing human (transiently transfected) receptors of composition α5β2γ1, α2β2γ1, α1β2γ1. For better protein expression of the α2 subunit-containing receptors, the 28 amino acid long signal peptide (Metl to Ala28) of the human GABAA α2 subunit was substituted by the 31 amino acid long signal peptide (Met1 to Ser31) of human GABAA α5 subunit.
(§2) Harvested pellets from HEK293F cells expressing the different GABAA receptor subtypes were resuspended in Mannitol Buffer pH 7.2-7.4 (Mannitol 0.29 M, Tricthylamine 10 mM. Acetic acid 10 mM. EDTA 1 mM plus protease inhibitors (20 tablets Complete. Roche Diagnostics Cat. No. 05 056 489 001 per liter)), washed two times and then resuspended at 1:10 to 1:15 dilution in the same buffer. Cell disruption was performed by stirring the suspension in a Parr vessel #4637 at 435 psi for 15 minutes, and then the suspensions were centrifuged at 1000×g for 15 minutes at 4° C. (Beckman Avanti J-HC: rotor JS-4.2). The supernatant (S1) was transferred in a 21 Schott flask and the pellet (P1) was resuspended with Mannitol Buffer up to 175 ml. The resuspended pellet was transferred into a 250 ml Corning centrifugal beaker and centrifuged at 1500 ×g for 10 minutes at 4° C. (Beckman Avanti J-HC: rotor JS-4.2). The supernatant (S1) was then transferred in the 21 Schott flask and the pellet was discarded. The supernatants (S1) were centrifuged in 500ml Beckman polypropylene centrifugal beaker at 15 000×g for 30 minutes at 4° C. (Beckman Avanti J-20 XP; rotor JLA-10.500). The pellet (P2) was resuspended with Mannitol Buffer 1:1 and frozen at −80° C. The supernatant (S2) was centrifuged in 100 ml Beckman polypropylene centrifugal tubes at 48000×g for 50 minutes at 4 °C (Beckman Avanti J-20 XP: rotor JA-18). The supernatant (S3) was discarded and the pellet (P3) was resuspended with 1:1 Mannitol Buffer. The P2 and P3 protein concentration was determined with the BIORAD Standard assay method with bovine serum albumin as standard and measured on the NANO-Drop 1000. The membrane suspension was aliquots (500μl per tube) and stored at −80° C. until required.
(§3) Membrane homogenates were resuspended and polytronised (Polytron PT1200E Kinematica AG) in Potassium Phosphate 10 mM, KCl 100 mM binding buffer at pH 7.4 to a final assay concentration determined with a previous experiment.
(§4) Radioligand binding assays were carried out in a volume of 200 μL (96-well plates) which contained 100 μL of cell membranes. [^3H]RO7239181 at a concentration of 1.5 nM (α5β2γ1) or 20-30 nM (α1β2γ1, α2β2γ1) and the test compound in the range of [0.3-10000]33 10^−9 M. Nonspecific binding was defined by 10×10^6 (α5β2γ1) and 30×10^6 M RO7239181 and typically represented less than 5% (α5β2γ1) and less than 20% (α1β2γ1, α2β2γ1) of the total binding. Assays were incubated to equilibrium for 1 hour at 4° C. and then, membranes were filtered onto unifilter (96-well white microplate with bonded GF/C filters preincubated 20-50 minutes in 0.3% Polyethylenimine) with a Filtermate 196 harvester (Packard BioScience) and washed 4 times with cold Potassium Phosphate 10 mM pH 7.4. KCl 100 mM binding buffer. After anhydrousing, filter-retained radioactivity was detected by liquid scintillation counting. Ki values were calculated using Excel-Fit (Microsoft) and are the means of two determinations.
Representative test results, obtained by the above described assay measuring binding affinity to HEK293 cells expressing human (h) receptors, are shown in the Table 1.

For experiment [3], the target named is human GABAA α2β2γ1 receptor (Homo sapiens (Human), UniProt P47869+Q8N1C3). The description is as above. As for the experimental part:
as §1
(§5) The affinity of compounds at GABAA γ1 subunit-containing receptors was measured by competition for [^3H]RO7239181 (67.3 Ci/mmol: Roche) binding to membranes from HEK293F cells (ThermoFisher R79007) expressing human (transiently transfected) receptors of composition α5β2γ1, α2β2γ1, α1β2γ1.
as §2, §3
as §4, with “[^3H]RO7239181 at a concentration of 1.5 nM (α5β2γ1) or 20-30 nM (α1β2γ1, α2β2γ1) and the test compound in the range of [0.3-10000]33 10^−9 M. Nonspecific binding was defined by 10×10^6 (α5β2γ1) and 30×10^6 M RO7239181 and typically represented less than 5% (α5β2γ1) and less than 20% (α1β2γ1, α2β2γ1) of the total binding.” left out

Experiment [4] addresses h-GABA-A α2β2γ1 receptor expressed in Xenopus laevis oocytes (Homo sapiens (Human), UniProt P47869+Q8N1C3). The experiment in a line: Two-electrode voltage clamp electrophysiology in Xenopus oocytes expressing GABAA receptors. The note with it: reference PAMs, GABA EC20. Type of experiment: cell-based. From the text: Functional Expression of GABAA Receptors:
Xenopus Oocytes Preparation
Xenopus laevis oocytes at maturation stages V-VI were used for the expression of cloned mRNA encoding GABAA receptor subunits. Oocytes ready for RNA micro-injection were bought from Ecocyte, Castrop-Rauxel, Germany and stored in modified Barth's medium (composition in mM: NaCl 88, KCl 1, NaHCO3 2.4, HEPES 10, MgSO4 0.82, CaNO3 0.33, CaCl2 0.33, pH=7.5) at 20 C. until the experiment.
Xenopus Oocytes Microinjection
Oocytes were plated in 96-well plates for microinjection using the Roboinject automated instrument (MultiChannelSystems, Reutlingen, Germany). Approximately 50 nL of an aqueous solution containing the RNA transcripts for the subunits of the desired GABAA receptor subtype was injected into each oocyte. […] Oocytes were kept in modified Barth's medium (composition in mM: NaCl 88, KCl 1, NaHCO3 […], HEPES 10, MgSO4 0.82, CaNO3 0.33, CaCl2 0.33, pH=7.5) at 20° C. until the experiment.
Electrophysiological experiments were performed using the Roboocyte instrument (MultiChannelSystems, Reutlingen, Germany) on days 3 to 5 after the micro-injection of mRNA. During the experiment the oocytes were constantly superfused by a solution containing (in mM) NaCl 90, KCl 1, HEPES 5, MgCl: 1, CaCl, 1 (pH 7.4). Oocytes were impaled by two glass microelectrodes (resistance: 0.5-0.8 MS2) which were filled with a solution containing KCl 1M +K-acetate 1.5 M and voltage-clamped to −80 mV. The recordings were performed at room temperature using the Roboocyte two-electrode voltage clamp system (Multichannelsystem). After an initial equilibration period of 1.5 min GABA was added for 1.5 min at a concentration evoking approximately 20% of a maximal current response (EC20). After another rest interval of 2.5 min GABA was again added evoking a response of similar amplitude and shape. […] Current traces were recorded at a digitization rate of 10 Hz during and shortly before and after the GABA application.
Each compound and concentration was tested on at least 3 oocytes. Different oocytes were used for different compound concentrations.
For the analysis, the digitized current traces of the first and second GABA response were superimposed and, if necessary, rescaled to equal maximal amplitudes. The ratio between the two responses during the time interval of test compound application was calculated point by point. The extremum of the resulting “ratio trace” was taken as the efficacy (“Fold increase”) of the compound expressed as “% modulation of GABA EC” (100* (Fold increase-1)).

Experiment [5] deals with human GABAA α1β2γ1 receptor (Homo sapiens (Human), UniProt P14867+Q8N1C3). The experiment in a line: Radioligand binding assay, competition for [3H]RO7239181, γ1-containing GABAA subtypes. As for the experimental part:
as §1, §5, §2, §3
as §4, with “[^3H]RO7239181 at a concentration of 1.5 nM (α5β2γ1) or 20-30 nM (α1β2γ1, α2β2γ1) and the test compound in the range of [0.3-10000]33 10^−9 M. Nonspecific binding was defined by 10×10^6 (α5β2γ1) and 30×10^6 M RO7239181 and typically represented less than 5% (α5β2γ1) and less than 20% (α1β2γ1, α2β2γ1) of the total binding.” left out

In the case of `Cc1nnc2n1-c1ccc(Cl)cc1C(c1ccccc1)=NC2` [Alprazolam, reference compound], in experiment [1], the “γ2/γ1 Selectivity Ratio” value is recorded as 0.0050 and the LogSel was −2.3.

`C[C@@H]1N=C(c2c(F)cccc2F)c2c(sc3c2C[C@H](C(F)F)C3)-n2c(CO)cnc21` [Example 22, [(7S,13S)-13-(difluoromethyl)-9-(2,6-difluorophenyl)-7-methyl-16-thia-2,5,8-triazatetracyclo [8.6.0.02,6.011,15]hexadeca-1(10),3,5,8,11(15)-pentaen-3-yl]methanol]: the pKi in experiment [2] is 7.35; in experiment [1], 5.60; in experiment [3], 7.99; in experiment [3] (read-out: Ki h-GABAA α2β2γ1, membranes from HEK293F cells, [3H]RO7239181 20-30 nM, mean of two determinations), 7.99. Also, the LogSel in experiment [1] is reported as 1.75.

With `CN1C(=O)CN=C(c2ccccc2F)c2cc([N+](=O)[O-])ccc21` [Flunitrazepam, reference compound], in experiment [4], the “potentiation of the GABA-induced current in α2β2γ1 GABAA receptor subtype expressing oocytes” value (“potentiation of the GABA-induced current” for short) is roughly 60%.

Take `Cc1ncc2n1-c1ccc(Cl)cc1C(c1ccccc1F)=NC2` [Midazolam, reference compound]: in experiment [1], the “γ2/γ1 Selectivity Ratio” value worked out at 0.0068 and the LogSel is reported as −2.2. The “potentiation of the GABA-induced current” value in experiment [4] is on record as roughly 60%.

As to `Cc1nnc2n1-c1sc3c(c1C(c1ccccc1Cl)=NC2)CCC3` [RE-A, reference compound], in experiment [1], the pKi was 8.18, the “γ2/γ1 Selectivity Ratio” value was found to be 0.38 and the LogSel was −0.42. The same compound showed a pKi in experiment [3] of 7.76.

`CCOC(=O)C1Cc2sc3c(c2C1)C(c1ccccc1Cl)=NCc1nnc(C)n1-3` (centres unmarked) [RE-B, reference compound]: in experiment [1] (HEK293F cell membranes, [3H]Flumazenil 1 nM, mean of two determinations, read-out: Ki h-GABAA α1β3γ2), the pKi is 5.91. In addition, in experiment [1], the “γ2/γ1 Selectivity Ratio” value was found to be 1.66 and the LogSel was 0.22. Also, the pKi in experiment [3] is 6.13.

On to `Cc1nnc2n1-c1sc3c(c1C(c1c(F)cccc1F)=N[C@H]2C)CCC3` [RE-C, (7S)-9-(2,6-difluorophenyl)-3,7-dimethyl-16-thia-2,4,5,8-tetrazatetracyclo [8.6.0.02,6.011,15]hexadeca-1(10),3,5,8,11(15)-pentaene, reference compound], for which the pKi was 7.76 in experiment [1], 8.59 in experiment [5] and 7.69 in experiment [3]. For the same compound, the “γ2/γ1 Selectivity Ratio” value in experiment [1] is recorded as 0.84. Besides, the LogSel in experiment [1] is recorded as −0.07.

For the compound `Cc1nnc2n1-c1ccc(Cl)cc1C(c1ccccc1Cl)=NC2` [Triazolam, reference compound], in experiment [1], the LogSel is given as −1.5. Besides, the “potentiation of the GABA-induced current” value in experiment [4] is roughly 60%.
